Laboratory results from patent US9884886B2, “Disulfide masked prodrug compositions and methods” (Merck Sharp & Dohme Corp., priority 2012, dated 2018).

Experiment: Exposure of DTE- or DTT-based dimers to glutathione, release of dimer phosphodiester
Type: physicochemical
Experimental: The half life of prodrug-dimer 5-2 was dependent on the character and excess of the reducing reagent (500:1/Prodrug:GSH), in this instance approximately 4 hours. The kinetics of the release was also dependent on pH and 1M TRIS hydrochloride buffers of pH values varied between 5.0 and 7.8 were used.

half-life (1M TRIS hydrochloride buffer with glutathione (GSH), pH 7.3, 500:1/Prodrug:GSH, pH 7.30, 1M TRIS hydrochloride buffer): ~4 h
release at acidic conditions (buffers of pH between 5.0 and 7.8): considerably slower
SMILES: C#CCO[C@@H]1CSSC[C@H]1OP(=O)(OC[C@H]1O[C@@H](n2ccc(=O)[nH]c2=O)[C@H](OC)[C@@H]1OC(=O)CCC(C)=O)O[C@H]1[C@@H](OC)[C@H](n2ccc(=O)[nH]c2=O)O[C@@H]1COC(c1ccccc1)(c1ccc(OC)cc1)c1ccc(OC)cc1 (stereo partly drawn) [Compound 5-2, (2R,3R,4R,5R)-2-{[({[(2R,3R,4R,5R)-2-{[bis(4-methoxyphenyl)(phenyl)methoxy]methyl}-5-(2,4-dioxo-3,4-dihydropyrimidin-1(2H)-yl)-4-methoxytetrahydrofuran-3-yl]oxy}{[(4S,5S)-5-(prop-2-yn-1-yloxy)-1,2-dithian-4-yl]oxy}phosphoryl)oxy]methyl}-5-(2,4-dioxo-3,4-dihydropyrimidin-1(2H)-yl)-4-methoxytetrahydrofuran-3-yl 4-oxopentanoate]
